{
  "source": "patent US5661130A",
  "about": "“Absorption enhancers for drug administration” (The UAB Research Foundation, priority 1993, dated 1997)",
  "key": {"rats": {"tested_on": "rats", "test": "Hyperglycemic effect of glucagon eye drops with surfactant", "type": "in vivo, rat", "settings": "for blood D-glucose values after glucagon eye drops (in words): surfactant plus glucagon, rats previously treated with eye drops of same surfactant plus insulin; for Blood Glucose Concentration: glucagon eye drops with 0.5% surfactant agent added after 120 min (after insulin eye drops)", "protocol": "Glucagon absorption from the eye was measured in rats given eye drops containing various surfactants plus glucagon (30 μg) (Eli Lilly, Indianapolis, Ind.) by monitoring an elevation in blood D-glucose levels. […] Once again, paired animals that received eye drops containing the surfactant agents only, or glucagon only, could be compared to animals receiving eye drops with surfactant agents and glucagon. […] Additionally, the use of glucagon eyedrops to treat a hypoglycemic crisis is now possible provided that an appropriate surfactant agent is included in the eye drop formulation."}, "[1]": {"tested_on": "normal rats with blood glucose elevated by xylazine/ketamine anesthesia", "test": "Hypoglycemic effect of insulin eye drops with absorption enhancer in anesthetized rats", "type": "in vivo, rat", "protocol": "This mimics the hyperglycemic state seen in diabetic animals and humans. The elevated levels of D-glucose that occur in response to anesthesia provide an optimal system in which to measure any systemic hypoglycemic action of insulin-containing eye drops.\nAdult male Sprague-Dawley rats (250-350g) were fed ad libitum, and experiments were conducted between 10:00 a.m. and 3:00 p.m. Rats were anesthetized with a mixture of xylazine (7.5 mg/kg) and ketamine (50 mg/kg) given intraperitoneally (IP) and allowed to stabilize for 50-90 min before the administration of eye drops. […] Blood D-glucose values were measured by collecting a drop of blood from the tail vein at 5-10 min intervals throughout the experiment and applying the blood to glucometer strips (Chemstrip bG) according to directions provided with the instrument (Accu-Chek II, Boehringer Mannheim Diagnostics; Indianapolis, Ind.).\n(§1) Eye drops were instilled at time 0 using a plastic disposable pipette tip with the eyes held open, and the rat was kept in a horizontal position on a warming pad (37° C.) throughout the protocol. […] Octyl β-D-maltoside, decyl-β-D-maltoside, dodecyl-β-D-maltoside, tridecyl-β-D-maltoside and tetradecyl-β-D-maltoside were obtained from Anatrace, Inc. (Maumee, Ohio)."}, "[2]": {"tested_on": "intact mouse fibrosarcoma cells", "settings": "LeGrue et al.; cited from earlier work"}, "[3]": {"tested_on": "monocytes or endothelial cells", "settings": "DiCorleto et al.; cited from earlier work"}, "[4]": {"tested_on": "normal rats with blood glucose elevated by xylazine/ketamine anesthesia", "test": "Hypoglycemic effect of insulin nose drop with absorption enhancer", "type": "in vivo, rat", "settings": "nose drop 0.2% insulin with 0.5% tetradecylmaltoside, after eye drops", "protocol": "Adult male Sprague-Dawley rats (250-350g) were fed ad libitum, and experiments were conducted between 10:00 a.m. and 3:00 p.m. Rats were anesthetized with a mixture of xylazine (7.5 mg/kg) and ketamine (50 mg/kg) given intraperitoneally (IP) and allowed to stabilize for 50-90 min before the administration of eye drops. Anesthesia of a normal rat with xylazine/ketamine produces an elevation in blood glucose values which provides an optimal state to determine the systemic hypoglycemic action of insulin-containing eye drops. Blood D-glucose values were measured by collecting a drop of blood from the tail vein at 5-10 min intervals throughout the experiment and applying the blood to glucometer strips (Chemstrip bG) according to directions provided with the instrument (Accu-Chek II, Boehringer Mannheim Diagnostics; Indianapolis, Ind.). Blood D-glucose values ranged from 200 to 400 mg/dl in anesthetized nondiabetic rats.\nas §1, with “Ohio). […]” for “Ohio).”"}, "rectal mucosa of rats": {"tested_on": "rectal mucosa of rats", "settings": "Murakami et al.; cited from earlier work"}, "[5]": {"settings": "0.5% enhancer with 0.2% regular porcine insulin"}, "[6]": {"settings": "enhancer concentration not singled out (0.125-0.5%), with 0.2% regular porcine insulin"}, "[7]": {"settings": "0.25% enhancer with 0.2% regular porcine insulin"}},
  "data": [
    {"compound": "CCCCCCCCCCO[C@@H]1O[C@H](CO)[C@@H](O[C@H]2O[C@H](CO)[C@@H](O)[C@H](O)[C@H]2O)[C@H](O)[C@H]1O", "note": "[Decyl Maltoside, decyl-β-D-maltoside]", "values": [
      {"measurement": "blood D-glucose values after glucagon eye drops (in words)", "setting": "rats", "result": "significantly increased"},
      {"measurement": "Effect as absorption enhancer on blood glucose, insulin eye drops (in words)", "setting": "[1]; [5]", "result": "prompt and sustained fall in blood glucose levels"},
      {"measurement": "Effect as absorption enhancer on blood glucose, insulin eye drops (in words)", "setting": "[1]; [6]", "result": "less"}
    ]},
    {"compound": "dodecylsucrose [Dodecyl Sucrose]", "values": [
      {"measurement": "blood D-glucose values after glucagon eye drops (in words)", "setting": "rats", "result": "significantly increased"},
      {"measurement": "blood glucose levels", "setting": "[1]; insulin eye drops with 0.125% dodecylsucrose, time 0 min", "result": 335, "unit": "mg/dL"},
      {"measurement": "blood glucose levels", "setting": "[1]; insulin eye drops with 0.125% dodecylsucrose, time 120 min", "result": 150, "unit": "mg/dL"}
    ]},
    {"compound": "CCCCCCCCO[C@@H]1O[C@H](CO)[C@@H](O)[C@H](O)[C@H]1O", "note": "[Octylglucoside, octyl β-D-glucoside]", "values": [
      {"measurement": "cytolysis of intact mouse fibrosarcoma cells", "setting": "[2]", "result": "non-cytolytic"},
      {"measurement": "viability or morphology of monocytes or endothelial cells", "setting": "[3]", "result": "no effect"}
    ]},
    {"compound": "CCCCCCOC1O[C@H](CO)[C@@H](O)[C@H](O)[C@H]1O", "note": "(stereo partly drawn) [hexylglucoside, Hexylglucopyranoside]", "values": [
      {"measurement": "Effect as absorption enhancer on blood glucose, insulin eye drops (in words)", "setting": "[1]; [5]", "result": "ineffective"}
    ]},
    {"compound": "decylsucrose", "values": [
      {"measurement": "Effect as absorption enhancer on blood glucose, insulin eye drops (in words)", "setting": "[1]; [5]", "result": "effective in reducing blood glucose levels"},
      {"measurement": "blood glucose levels", "setting": "[1]; insulin eye drops with 0.5% decylsucrose, time 0 min", "result": 313, "unit": "mg/dL"},
      {"measurement": "blood glucose levels", "setting": "[1]; insulin eye drops with 0.5% decylsucrose, time 120 min", "result": 164, "unit": "mg/dL"}
    ]},
    {"compound": "CCCCCCCCCCCCCCO[C@@H]1O[C@H](CO)[C@@H](O[C@H]2O[C@H](CO)[C@@H](O)[C@H](O)[C@H]2O)[C@H](O)[C@H]1O", "note": "[Tetradecyl Maltoside, tetradecyl-β-D-maltoside]", "values": [
      {"measurement": "Effect as absorption enhancer on blood glucose, insulin eye drops (in words)", "setting": "[1]; 0.125% enhancer with 0.2% regular porcine insulin, listed as tetradecyl maltoside", "result": "effective"},
      {"measurement": "Effect as absorption enhancer on blood glucose, insulin eye drops (in words)", "setting": "[1]; 0.125% enhancer with 0.2% regular porcine insulin, listed as tetradecylmaltoside", "result": "prompt and prominent drop in blood glucose levels"},
      {"measurement": "Effect as absorption enhancer on blood glucose, insulin eye drops (in words)", "setting": "[1]; [5]", "result": "effective"},
      {"measurement": "blood glucose levels after nose drop (in words)", "setting": "[4]", "result": "further decreased"}
    ]},
    {"compound": "CCCCCCCCCCCCO[C@@H]1O[C@H](CO)[C@@H](O[C@H]2O[C@H](CO)[C@@H](O)[C@H](O)[C@H]2O)[C@H](O)[C@H]1O", "note": "[Dodecyl Maltoside, dodecyl-β-D-maltoside]", "values": [
      {"measurement": "Effect as absorption enhancer on blood glucose, insulin eye drops (in words)", "setting": "[1]; 0.125% enhancer with 0.2% regular porcine insulin", "result": "ineffective"},
      {"measurement": "Effect as absorption enhancer on blood glucose, insulin eye drops (in words)", "setting": "[1]; [7]", "result": "smaller and more transient effect"},
      {"measurement": "Effect as absorption enhancer on blood glucose, insulin eye drops (in words)", "setting": "[1]; 0.375% enhancer with 0.2% regular porcine insulin", "result": "equally effective"},
      {"measurement": "Effect as absorption enhancer on blood glucose, insulin eye drops (in words)", "setting": "[1]; 0.5% enhancer with 0.2% regular porcine insulin, listed as dodecyl-β-D-maltoside", "result": "prompt and sustained fall in blood glucose levels"},
      {"measurement": "Effect as absorption enhancer on blood glucose, insulin eye drops (in words)", "setting": "[1]; 0.5% enhancer with 0.2% regular porcine insulin, listed as dodecylmaltoside", "result": "equally effective"},
      {"measurement": "histological change to the rectal tissue", "setting": "rectal mucosa of rats", "result": "without producing any apparent histological change"},
      {"measurement": "promoting absorption of dextrans and carboxyfluoroscein across the rectal mucosa", "setting": "rectal mucosa of rats", "result": "effective"}
    ]},
    {"compound": "CCCCCCCCCCCCCOC1OC(CO)C(OC2OC(CO)C(O)C(O)C2O)C(O)C1O", "note": "[Tridecyl Maltoside, tridecyl-β-D-maltoside]", "values": [
      {"measurement": "Blood Glucose Concentration", "setting": "rats; time 130 min", "result": 82, "unit": "mg/dL"},
      {"measurement": "Blood Glucose Concentration", "setting": "rats; time 140 min", "result": 121, "unit": "mg/dL"},
      {"measurement": "Blood Glucose Concentration", "setting": "rats; time 150 min", "result": 148, "unit": "mg/dL"},
      {"measurement": "Blood Glucose Concentration", "setting": "rats; time 160 min", "result": 173, "unit": "mg/dL"},
      {"measurement": "Blood Glucose Concentration", "setting": "rats; time 170 min", "result": 162, "unit": "mg/dL"},
      {"measurement": "Blood Glucose Concentration", "setting": "rats; time 180 min", "result": 162, "unit": "mg/dL"},
      {"measurement": "Blood Glucose Concentration", "setting": "rats; time 190 min", "result": 156, "unit": "mg/dL"},
      {"measurement": "blood D-glucose values after glucagon eye drops (in words)", "setting": "rats", "result": "significantly increased"},
      {"measurement": "Effect as absorption enhancer on blood glucose, insulin eye drops (in words)", "setting": "[1]; [7]", "result": "sustained for the two hour time course of the experiment"},
      {"measurement": "Effect as absorption enhancer on blood glucose, insulin eye drops (in words)", "setting": "[1]; [5]", "result": "effective"},
      {"measurement": "Blood Glucose Concentration", "setting": "[1]; 0.5% surfactant agent, time -10 min, before insulin eye drops", "result": 307, "unit": "mg/dL"},
      {"measurement": "Blood Glucose Concentration", "setting": "[1]; 0.5% surfactant agent, time -20 min, before insulin eye drops", "result": 255, "unit": "mg/dL"},
      {"measurement": "Effect as absorption enhancer on blood glucose, insulin eye drops (in words)", "setting": "[1]; [6]", "result": "dose-dependent effect"},
      {"measurement": "Blood Glucose Concentration", "setting": "[1]; insulin eye drops with 0.5% surfactant agent, time 0 min", "result": 323, "unit": "mg/dL"},
      {"measurement": "Blood Glucose Concentration", "setting": "[1]; insulin eye drops with 0.5% surfactant agent, time 10 min", "result": 309, "unit": "mg/dL"},
      {"measurement": "Blood Glucose Concentration", "setting": "[1]; insulin eye drops with 0.5% surfactant agent, time 20 min", "result": 217, "unit": "mg/dL"},
      {"measurement": "Blood Glucose Concentration", "setting": "[1]; insulin eye drops with 0.5% surfactant agent, time 30 min", "result": 131, "unit": "mg/dL"},
      {"measurement": "Blood Glucose Concentration", "setting": "[1]; insulin eye drops with 0.5% surfactant agent, time 40 min", "result": 100, "unit": "mg/dL"},
      {"measurement": "Blood Glucose Concentration", "setting": "[1]; insulin eye drops with 0.5% surfactant agent, time 50 min", "result": 87, "unit": "mg/dL"},
      {"measurement": "Blood Glucose Concentration", "setting": "[1]; insulin eye drops with 0.5% surfactant agent, time 60 min", "result": 107, "unit": "mg/dL"},
      {"measurement": "Blood Glucose Concentration", "setting": "[1]; insulin eye drops with 0.5% surfactant agent, time 70 min", "result": 115, "unit": "mg/dL"},
      {"measurement": "Blood Glucose Concentration", "setting": "[1]; insulin eye drops with 0.5% surfactant agent, time 80 min", "result": 79, "unit": "mg/dL"},
      {"measurement": "Blood Glucose Concentration", "setting": "[1]; insulin eye drops with 0.5% surfactant agent, time 90 min", "result": 85, "unit": "mg/dL"},
      {"measurement": "Blood Glucose Concentration", "setting": "[1]; insulin eye drops with 0.5% surfactant agent, time 100 min", "result": 76, "unit": "mg/dL"},
      {"measurement": "Blood Glucose Concentration", "setting": "[1]; insulin eye drops with 0.5% surfactant agent, time 110 min", "result": 74, "unit": "mg/dL"},
      {"measurement": "Blood Glucose Concentration", "setting": "[1]; insulin eye drops with 0.5% surfactant agent, time 120 min", "result": 75, "unit": "mg/dL"}
    ]},
    {"compound": "CCCCCCCCO[C@@H]1O[C@H](CO)[C@@H](O[C@H]2O[C@H](CO)[C@@H](O)[C@H](O)[C@H]2O)[C@H](O)[C@H]1O", "note": "[octylmaltoside, Octyl β-D-maltoside]", "values": [
      {"measurement": "Effect as absorption enhancer on blood glucose, insulin eye drops (in words)", "setting": "[1]; [6]", "result": "no"}
    ]},
    {"compound": "CCCCCCCOC1O[C@H](CO)[C@@H](O)[C@H](O)[C@H]1O", "note": "(stereo partly drawn) [heptylglucoside, heptylglucopyranoside]", "values": [
      {"measurement": "Effect as absorption enhancer on blood glucose, insulin eye drops (in words)", "setting": "[1]; [5]", "result": "ineffective"}
    ]},
    {"compound": "CCCCCCCCCOC1O[C@H](CO)[C@@H](O)[C@H](O)[C@H]1O", "note": "(stereo partly drawn) [nonylglucoside, nonylglucopyranoside]", "values": [
      {"measurement": "Effect as absorption enhancer on blood glucose, insulin eye drops (in words)", "setting": "[1]; [5]", "result": "effectively stimulated insulin absorption"},
      {"measurement": "blood glucose levels", "setting": "[1]; insulin eye drops with 0.5% nonylglucoside, initial value (from)", "result": 297, "unit": "mg/dL"},
      {"measurement": "blood glucose levels", "setting": "[1]; insulin eye drops with 0.5% nonylglucoside, reduced value (to)", "result": 150, "unit": "mg/dL"}
    ]}
  ]
}
